Reference: ChEMBL document CHEMBL5512666, “Selenization of Small Molecule Drugs: A New Player on the Board” (J Med Chem, 2024)
≈ marks a conversion by molar mass, not a printed value.

Legend:
[1] = Cytotoxicity against human MDA-MB-231 cells assessed as reduction in cell viability incubated for 96 hrs by MTT assay; assay type: toxicity, cell-based
Candida albicans [2] = experiment: Antifungal activity against azole-resistant Candida albicans clinical isolate CaR assessed as fungal growth inhibition incubated for 24 hrs by CLSI protocol based broth microdilution method; assay type: functional
[3] = Cytotoxicity against human SGC cells assessed as reduction in cell viability incubated for 96 hrs by MTT assay; assay type: toxicity, cell-based
[4] = Cytotoxicity against human A549 cells assessed as reduction in cell viability incubated for 96 hrs by MTT assay; assay type: toxicity, cell-based
Candida albicans [5] = experiment: Antifungal activity against azole-resistant Candida albicans clinical isolate 904 assessed as fungal growth inhibition incubated for 24 hrs by CLSI protocol based broth microdilution method; assay type: functional
Candida albicans [6] = experiment: Antifungal activity against azole-resistant Candida albicans clinical isolate 901 assessed as fungal growth inhibition incubated for 24 hrs by CLSI protocol based broth microdilution method; assay type: functional
Candida albicans [7] = experiment: Antifungal activity against azole-resistant Candida albicans clinical isolate 632 assessed as fungal growth inhibition incubated for 24 hrs by CLSI protocol based broth microdilution method; assay type: functional
Candida albicans [8] = experiment: Antifungal activity against azole-resistant Candida albicans clinical isolate 17 assessed as fungal growth inhibition incubated for 24 hrs by CLSI protocol based broth microdilution method; assay type: functional
Candida albicans [9] = experiment: Antifungal activity against Candida albicans SC5314; assay type: functional
Cryptococcus neoformans = experiment: Antifungal activity against Cryptococcus neoformans CGMCC 2.3161; assay type: functional
Aspergillus fumigatus = experiment: Antifungal activity against Aspergillus fumigatus CGMCC 3.7795; assay type: functional
Nakaseomyces glabratus = experiment: Antifungal activity against Candida glabrata; assay type: functional
Pichia kudriavzevii = experiment: Antifungal activity against Candida krusei AS 2.1045; assay type: functional
Candida tropicalis = experiment: Antifungal activity against Candida tropicalis CGMCC 2.3739; assay type: functional
Candida albicans [10] = experiment: Antifungal activity against Candida albicans CPCC 400616; assay type: functional
Candida parapsilosis = experiment: Antifungal activity against Candida parapsilosis 22019; assay type: functional; conditions: Lodderomyces parapsilosis
OVCAR-3 = experiment: Antiproliferative activity against human OVCAR-3 cells; assay type: functional, cell-based
[11] = Antiproliferative activity against human HEY A8 cells; assay type: functional, cell-based
ES-2 = experiment: Antiproliferative activity against human ES2 cells; assay type: functional, cell-based
[12] = Antiproliferative activity against human OVCAR-10 cells; assay type: functional, cell-based
HEK-293T = experiment: Antiproliferative activity against HEK293T; assay type: functional, cell-based; conditions: Homo sapiens
[13] = Antioxidant activity assessed as reduction in peroxynitrite mediated L-tyrosine nitration by measuring remaining activity relative to control; assay type: functional; design: concentration or dose not given beside the values
[14] = Antioxidant activity assessed as inhibition of peroxynitrite mediated L-tyrosine nitration in sodium phosphate buffer at pH 7.5 incubated for 7 mins by RP-HPLC analysis; assay type: functional
Human alphaherpesvirus 3 = experiment: Antiviral activity against VZV infected in African green monkey Vero cells assessed as reduction in virus-induced cytopathic effect incubated for 3 days by MTT assay; assay type: functional, organism-based; conditions: Human alphaherpesvirus 3, Vero, 72 h
Human alphaherpesvirus 2 = experiment: Antiviral activity against HSV-2 infected in African green monkey Vero cells assessed as reduction in virus-induced cytopathic effect incubated for 3 days by MTT assay; assay type: functional, organism-based; conditions: Human alphaherpesvirus 2, Vero, 72 h
Human alphaherpesvirus 1 = experiment: Antiviral activity against HSV-1 infected in African green monkey Vero cells assessed as reduction in virus-induced cytopathic effect incubated for 3 days by MTT assay; assay type: functional, organism-based; conditions: Human alphaherpesvirus 1, Vero, 72 h
Human betaherpesvirus 5 = experiment: Antiviral activity against […] infected in African green monkey Vero cells assessed as reduction in virus-induced cytopathic effect incubated for 3 days by MTT assay; assay type: functional, organism-based; conditions: Human betaherpesvirus 5, Vero, 72 h
MHCC97H = experiment: Antiproliferative activity against human MHCC97H cells assessed as reduction in cell viability incubated for 48 hrs by MTT assay; assay type: functional, cell-based
[15] = Inhibition of TrxR (unknown origin) expressed in MHCC97H cells incubated for 24 hrs by colorimetric assay; assay type: cell-based, Homo sapiens

## c1ccc(-c2nn[se]c2-n2cncn2)cc1
[1]
  IC50 at 96 h: 80.7 µg/mL (≈ 292 µM)
Candida albicans [2]
  MIC: 2 µg/mL (≈ 7.24 µM)
[3]
  IC50 at 96 h: 30.8 µg/mL (≈ 111 µM)
[4]
  IC50 at 96 h: 20.5 µg/mL (≈ 74.3 µM)
Candida albicans [5]
  MIC: 32 µg/mL (≈ 116 µM)
Candida albicans [6]
  MIC: 32 µg/mL (≈ 116 µM)
Candida albicans [7]
  MIC: 32 µg/mL (≈ 116 µM)
Candida albicans [8]
  MIC: 16 µg/mL (≈ 57.9 µM)

## Cc1cccc(C)c1[Se]C(Cn1ccnc1)c1ccc(F)cc1 (stereo not drawn)
Candida albicans [9]
  MIC: 0.03 µg/mL (≈ 0.0804 µM)
Cryptococcus neoformans
  MIC: 0.13 µg/mL (≈ 0.348 µM)
Aspergillus fumigatus
  MIC: 2 µg/mL (≈ 5.36 µM)
Nakaseomyces glabratus
  MIC: 0.25 µg/mL (≈ 0.67 µM)
Pichia kudriavzevii
  MIC: 0.06 µg/mL (≈ 0.161 µM)
Candida tropicalis
  MIC: 0.06 µg/mL (≈ 0.161 µM)
Candida albicans [10]
  MIC: 0.03 µg/mL (≈ 0.0804 µM)
Candida parapsilosis
  MIC: 0.13 µg/mL (≈ 0.348 µM)

## CC[Se]C(=O)CCCC[C@@H]1SC[C@@H]2NC(=O)N[C@@H]21
OVCAR-3
  IC50: 34.2 µM
[11]
  IC50: 12.8 µM
ES-2
  IC50: 14.5 µM
[12]
  IC50: 40.4 µM
HEK-293T
  IC50: 38.8 µM

## O=c1[nH]cc(F)c(=O)[nH]1 [FLUOROURACIL]
OVCAR-3
  IC50: 18.9 µM
[11]
  IC50: 48.4 µM
ES-2
  IC50: 25.9 µM
[12]
  IC50: 26.4 µM
HEK-293T
  IC50: 56.2 µM

## Cn1cc[nH]c1=[Se]
[13]
  Activity: 66%
[14]
  IC50: 49.1 µM

## NC1=Nc2c(ncn2C[Se]C(CO)CO)C(NC2CC2)N1 (stereo not drawn)
Human alphaherpesvirus 3
  EC50: > 100 µM
Human alphaherpesvirus 2
  EC50: > 100 µM
Human alphaherpesvirus 1
  EC50: > 100 µM
Human betaherpesvirus 5
  EC50: 41.1 µM

## O=C(O)CCCC[C@@H]1SC[C@@H]2NC(=O)N[C@@H]21 [BIOTIN]
OVCAR-3
  IC50: > 100 µM
[11]
  IC50: > 100 µM
ES-2
  IC50: > 100 µM
[12]
  IC50: > 100 µM
HEK-293T
  IC50: > 100 µM

## N#Cc1cccc(-c2ccc(=O)n(Cc3cccc(-c4ncc([Se]CCCN5CCCCC5)cn4)c3)n2)c1
MHCC97H
  IC50: 0.038 µM
[15]
  IC50: 0.654 µM

## C=C1N(C)C=CN1CCCCCn1ccn(C)c1=[Se]
[13]
  Activity: 45%

## C=C1N(C)C=CN1CCCCn1ccn(C)c1=[Se]
[13]
  Activity: 56%

## CN(C)CC[Se]c1cnc(-c2cccc(Cn3nc(-c4cccc(C#N)c4)ccc3=O)c2)nc1
MHCC97H
  IC50: 0.027 µM
[15]
  IC50: 0.421 µM
